Assay results as given in paper PMC7719162, “Positioning of an unprecedented spiro[5.5]undeca ring system into kinase inhibitor space” (Scientific Reports, 2020).
Where two headings read alike, the source gives them in different places.

Experiments:
AMPK(A2/B2/G1) [1] = target: T1, AMPK(A2/B2/G1) (Homo sapiens, UniProt O43741+P54619+P54646); experiment: Kinase panel assay (radiolabelled); format: biochemical; conditions: 30 μM compound, ATP 10 μM; duplicates Data 1/Data 2; read-out: % Enzyme Activity (relative to DMSO controls)
T1 construct: purchased Reaction Biology Corp

AMPK(A2/B2/G1) [2] = target: T2, AMPK(A2/B2/G1) (Homo sapiens, UniProt P54646); experiment: Kinase panel assay (radiolabelled); format: biochemical; conditions: 30 μM compound, ATP 10 μM; duplicates Data 1/Data 2
T2 construct: purchased Reaction Biology Corp

ARK5/NUAK1 = target: T3, ARK5/NUAK1 (Homo sapiens, UniProt O60285); experiment: Kinase panel assay (radiolabelled); format: biochemical; conditions: ATP 10 μM
T3 construct: purchased Reaction Biology Corp
T3 sequence (O60285 1-661): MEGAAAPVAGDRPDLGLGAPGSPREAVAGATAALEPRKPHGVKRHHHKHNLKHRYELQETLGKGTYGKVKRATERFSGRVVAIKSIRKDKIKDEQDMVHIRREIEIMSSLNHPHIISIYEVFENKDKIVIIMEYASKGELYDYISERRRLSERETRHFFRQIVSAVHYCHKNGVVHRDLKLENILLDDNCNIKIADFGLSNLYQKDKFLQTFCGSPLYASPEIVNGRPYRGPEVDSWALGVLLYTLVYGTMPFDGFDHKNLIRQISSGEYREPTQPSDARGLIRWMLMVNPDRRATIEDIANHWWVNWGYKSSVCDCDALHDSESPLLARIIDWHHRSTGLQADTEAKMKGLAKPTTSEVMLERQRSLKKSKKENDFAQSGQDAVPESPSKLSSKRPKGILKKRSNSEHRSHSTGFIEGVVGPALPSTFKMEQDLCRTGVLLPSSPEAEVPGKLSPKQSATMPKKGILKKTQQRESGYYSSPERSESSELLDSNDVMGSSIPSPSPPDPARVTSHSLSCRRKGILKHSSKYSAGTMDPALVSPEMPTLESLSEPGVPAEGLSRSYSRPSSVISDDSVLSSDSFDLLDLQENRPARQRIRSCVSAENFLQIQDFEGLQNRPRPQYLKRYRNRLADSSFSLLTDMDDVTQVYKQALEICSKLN

CDK2/cyclin O = target: T4, CDK2/cyclin O (Homo sapiens, UniProt P24941); experiment: Kinase panel assay (radiolabelled); format: biochemical; conditions: ATP 10 μM
T4 construct: purchased Reaction Biology Corp

EIF2AK2 = target: T5, EIF2AK2 (Homo sapiens, UniProt P19525); experiment: Kinase panel assay (radiolabelled); format: biochemical; conditions: 30 μM compound, ATP 10 μM, duplicates Data 1/Data 2
T5 construct: purchased Reaction Biology Corp

GSK3b = target: T6, GSK3b (Homo sapiens, UniProt P49841); experiment: Kinase panel assay (radiolabelled); format: biochemical
T6 construct: purchased Reaction Biology Corp

JNK2 = target: T7, JNK2 (Homo sapiens, UniProt P45984); experiment: Kinase panel assay (radiolabelled); format: biochemical; conditions: ATP 10 μM
T7 construct: purchased Reaction Biology Corp

STK25/YSK1 = target: T8, STK25/YSK1 (Homo sapiens, UniProt O00506); experiment: Kinase panel assay (radiolabelled); format: biochemical; conditions: ATP 10 μM
T8 construct: purchased Reaction Biology Corp

TRKA-TFG (TRK-T3) = target: T9, TRKA-TFG (TRK-T3) (Homo sapiens, UniProt P04629+Q92734); experiment: Kinase panel assay (radiolabelled); format: biochemical; conditions: 30 μM compound, ATP 10 μM, duplicates Data 1/Data 2
T9 construct: TFG (fusion partner); purchased Reaction Biology Corp

SPHK1 = target: T10, SPHK1 (Homo sapiens, UniProt Q9NYA1); experiment: Kinase panel assay (lipid kinase); format: biochemical; conditions: 30 μM compound, ATP 10 μM, duplicates Data 1/Data 2
T10 construct: purchased Reaction Biology Corp

SPHK2 = target: T11, SPHK2 (Homo sapiens, UniProt Q9NRA0); experiment: Kinase panel assay (lipid kinase); format: biochemical; conditions: 30 μM compound, ATP 10 μM, duplicates Data 1/Data 2
T11 construct: purchased Reaction Biology Corp

PI3Kg (p110g) = target: T12, PI3Kg (p110g) (Homo sapiens, UniProt P48736); experiment: Kinase panel assay (lipid kinase); format: biochemical; conditions: 30 μM compound, ATP 10 μM, duplicates Data 1/Data 2
T12 construct: purchased Reaction Biology Corp

PGE2 = experiment: Secreted PGE2 immunoassay in LPS-induced BV-2 cells; format: cell-based, murine
Experimental: To evaluate the secreted level of Prostaglandin E2 (PGE2), Tumor necrosis factor (TNF-α), Interleukin (IL-6), Interleukin (IL-1β), BV2 cells were seeded in a 6 well plate at the density of 1.5 × 10^6 cells/well in DMEM and incubated for 24 h. Seeded cells sere pretreated and, activated with LPS for next 24 h. conditioned medium from treated cells were collected and stored at -80 degree for longer period of time. The amount of TNF-α, IL-1β, PGE2,and IL-6 were evaluated using the competitive enzyme immunoassay kit. PGE2 kit were obtained from (Cayman Chemical, Ann Arbor, MI, USA) and TNF-α, IL-1β, and IL-6 were measured using ELISA development kits (R&D Systems, Minneapolis, MN, USA). All the protocol was exactly followed as written in the manual.

Haspin = target: T13, Haspin (Homo sapiens, UniProt Q8TF76); conditions: cited from earlier work
T13 construct: purchased Reaction Biology Corp
T13 sequence (Q8TF76 1-798): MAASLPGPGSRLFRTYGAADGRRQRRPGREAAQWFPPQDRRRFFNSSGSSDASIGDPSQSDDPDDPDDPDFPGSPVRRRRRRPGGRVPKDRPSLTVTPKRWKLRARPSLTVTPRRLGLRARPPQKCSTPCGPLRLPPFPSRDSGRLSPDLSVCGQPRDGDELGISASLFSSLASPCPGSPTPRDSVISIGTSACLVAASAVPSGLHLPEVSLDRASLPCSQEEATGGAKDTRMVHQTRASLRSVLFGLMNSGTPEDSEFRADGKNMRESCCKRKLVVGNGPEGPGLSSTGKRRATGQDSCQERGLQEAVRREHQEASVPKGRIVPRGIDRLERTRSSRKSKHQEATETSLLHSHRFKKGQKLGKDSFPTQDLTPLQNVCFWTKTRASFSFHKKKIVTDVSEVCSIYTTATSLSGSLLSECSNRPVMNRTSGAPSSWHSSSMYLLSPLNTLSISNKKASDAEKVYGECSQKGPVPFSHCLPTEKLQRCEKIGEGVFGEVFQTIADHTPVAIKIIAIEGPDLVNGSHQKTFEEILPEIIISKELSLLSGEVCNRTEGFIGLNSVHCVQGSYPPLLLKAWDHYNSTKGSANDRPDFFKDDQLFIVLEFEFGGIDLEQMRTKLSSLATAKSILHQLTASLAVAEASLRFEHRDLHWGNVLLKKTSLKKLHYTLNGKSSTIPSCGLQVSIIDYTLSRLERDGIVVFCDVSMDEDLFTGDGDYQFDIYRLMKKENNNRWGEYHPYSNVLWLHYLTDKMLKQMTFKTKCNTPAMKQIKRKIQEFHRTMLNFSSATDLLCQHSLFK

PKCa = target: T14, PKCa (Homo sapiens, UniProt P17252); conditions: cited from earlier work
T14 construct: purchased Reaction Biology Corp

[3] = 30 μM compound, duplicates Data 1/Data 2
[4] = 30 μM compound, duplicates Data 1/Data 2, read-out: % Enzyme Activity (relative to DMSO controls)
[5] = 30 μM, average ± SD, read-out: % Residual Activity at 30 μM
[6] = read-out: % Enzyme Activity (relative to DMSO controls)

T7 sequence (P45984 whole entry): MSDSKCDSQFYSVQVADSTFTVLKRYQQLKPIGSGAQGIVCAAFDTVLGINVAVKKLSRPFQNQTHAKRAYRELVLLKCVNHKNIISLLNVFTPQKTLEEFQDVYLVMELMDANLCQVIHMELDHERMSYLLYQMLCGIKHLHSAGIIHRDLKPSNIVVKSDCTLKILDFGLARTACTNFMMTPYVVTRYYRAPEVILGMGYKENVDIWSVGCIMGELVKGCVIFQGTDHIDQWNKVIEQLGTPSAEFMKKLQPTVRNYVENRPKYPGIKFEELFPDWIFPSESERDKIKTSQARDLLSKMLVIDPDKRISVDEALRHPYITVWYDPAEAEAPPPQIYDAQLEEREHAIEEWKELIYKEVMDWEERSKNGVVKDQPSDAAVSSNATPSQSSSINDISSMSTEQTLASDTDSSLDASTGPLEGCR
T6 sequence (P49841 whole entry): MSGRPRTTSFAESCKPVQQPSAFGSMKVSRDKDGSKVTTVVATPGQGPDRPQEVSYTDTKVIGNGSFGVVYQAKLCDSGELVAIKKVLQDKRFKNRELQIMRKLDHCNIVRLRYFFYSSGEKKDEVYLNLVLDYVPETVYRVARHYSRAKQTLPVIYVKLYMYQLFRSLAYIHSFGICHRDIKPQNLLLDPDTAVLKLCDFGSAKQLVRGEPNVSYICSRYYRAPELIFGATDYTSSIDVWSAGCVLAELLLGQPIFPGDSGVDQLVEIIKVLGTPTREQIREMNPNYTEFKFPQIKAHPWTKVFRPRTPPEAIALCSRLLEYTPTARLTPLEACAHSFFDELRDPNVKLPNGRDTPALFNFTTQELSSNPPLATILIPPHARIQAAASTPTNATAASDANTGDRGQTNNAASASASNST
T8 sequence (O00506 whole entry): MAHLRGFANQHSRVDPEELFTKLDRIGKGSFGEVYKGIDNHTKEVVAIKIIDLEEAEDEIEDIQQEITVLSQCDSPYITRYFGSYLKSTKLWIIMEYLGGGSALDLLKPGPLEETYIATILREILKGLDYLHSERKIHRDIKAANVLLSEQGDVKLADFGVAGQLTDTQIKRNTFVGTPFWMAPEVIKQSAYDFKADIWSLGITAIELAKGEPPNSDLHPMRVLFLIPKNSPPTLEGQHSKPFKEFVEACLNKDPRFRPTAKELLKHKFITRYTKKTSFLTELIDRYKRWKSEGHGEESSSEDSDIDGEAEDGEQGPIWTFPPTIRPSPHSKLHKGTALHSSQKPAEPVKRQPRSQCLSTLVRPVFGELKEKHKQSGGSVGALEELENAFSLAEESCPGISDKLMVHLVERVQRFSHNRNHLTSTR
T10 sequence (Q9NYA1 whole entry): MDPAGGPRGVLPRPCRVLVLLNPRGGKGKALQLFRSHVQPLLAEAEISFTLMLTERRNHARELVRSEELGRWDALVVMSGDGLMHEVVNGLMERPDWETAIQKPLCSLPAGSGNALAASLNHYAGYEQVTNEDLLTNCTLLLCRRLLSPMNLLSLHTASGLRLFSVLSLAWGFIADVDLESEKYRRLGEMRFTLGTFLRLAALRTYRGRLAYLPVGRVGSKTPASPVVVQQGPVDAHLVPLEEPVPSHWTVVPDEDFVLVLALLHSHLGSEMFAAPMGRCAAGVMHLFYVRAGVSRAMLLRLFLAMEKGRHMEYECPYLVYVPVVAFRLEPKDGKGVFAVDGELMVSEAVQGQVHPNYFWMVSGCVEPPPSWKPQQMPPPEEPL
T5 sequence (P19525 whole entry): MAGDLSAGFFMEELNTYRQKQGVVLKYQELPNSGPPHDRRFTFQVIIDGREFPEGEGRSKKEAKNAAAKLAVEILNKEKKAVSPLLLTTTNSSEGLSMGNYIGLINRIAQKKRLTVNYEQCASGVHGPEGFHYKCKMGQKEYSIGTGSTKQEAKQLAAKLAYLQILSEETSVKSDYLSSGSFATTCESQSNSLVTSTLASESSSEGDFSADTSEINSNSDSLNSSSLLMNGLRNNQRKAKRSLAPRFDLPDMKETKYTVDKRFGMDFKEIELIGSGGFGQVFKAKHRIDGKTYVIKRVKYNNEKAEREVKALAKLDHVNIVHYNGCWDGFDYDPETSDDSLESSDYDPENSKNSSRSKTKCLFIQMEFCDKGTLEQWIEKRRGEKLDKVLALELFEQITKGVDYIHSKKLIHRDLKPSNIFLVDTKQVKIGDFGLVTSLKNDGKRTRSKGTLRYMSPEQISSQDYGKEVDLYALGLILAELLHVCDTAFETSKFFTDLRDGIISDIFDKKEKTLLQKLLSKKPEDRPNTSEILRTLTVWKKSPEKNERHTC
T11 sequence (Q9NRA0 whole entry): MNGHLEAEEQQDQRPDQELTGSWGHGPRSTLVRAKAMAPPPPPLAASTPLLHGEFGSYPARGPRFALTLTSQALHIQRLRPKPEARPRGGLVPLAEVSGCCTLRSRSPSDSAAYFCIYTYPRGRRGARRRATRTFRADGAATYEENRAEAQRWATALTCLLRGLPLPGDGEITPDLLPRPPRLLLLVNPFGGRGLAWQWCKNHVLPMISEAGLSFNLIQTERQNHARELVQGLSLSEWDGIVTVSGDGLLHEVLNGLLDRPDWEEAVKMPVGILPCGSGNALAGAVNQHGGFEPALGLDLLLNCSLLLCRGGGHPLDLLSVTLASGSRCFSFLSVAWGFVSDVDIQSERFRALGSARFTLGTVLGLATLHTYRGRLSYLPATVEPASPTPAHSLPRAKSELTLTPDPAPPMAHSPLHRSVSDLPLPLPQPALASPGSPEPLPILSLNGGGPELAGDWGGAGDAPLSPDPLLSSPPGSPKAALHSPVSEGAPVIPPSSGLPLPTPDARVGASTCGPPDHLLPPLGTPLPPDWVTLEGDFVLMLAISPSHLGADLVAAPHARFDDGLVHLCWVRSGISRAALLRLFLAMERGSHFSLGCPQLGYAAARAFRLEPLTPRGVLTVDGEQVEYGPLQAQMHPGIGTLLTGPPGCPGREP
T12 sequence (P48736 whole entry): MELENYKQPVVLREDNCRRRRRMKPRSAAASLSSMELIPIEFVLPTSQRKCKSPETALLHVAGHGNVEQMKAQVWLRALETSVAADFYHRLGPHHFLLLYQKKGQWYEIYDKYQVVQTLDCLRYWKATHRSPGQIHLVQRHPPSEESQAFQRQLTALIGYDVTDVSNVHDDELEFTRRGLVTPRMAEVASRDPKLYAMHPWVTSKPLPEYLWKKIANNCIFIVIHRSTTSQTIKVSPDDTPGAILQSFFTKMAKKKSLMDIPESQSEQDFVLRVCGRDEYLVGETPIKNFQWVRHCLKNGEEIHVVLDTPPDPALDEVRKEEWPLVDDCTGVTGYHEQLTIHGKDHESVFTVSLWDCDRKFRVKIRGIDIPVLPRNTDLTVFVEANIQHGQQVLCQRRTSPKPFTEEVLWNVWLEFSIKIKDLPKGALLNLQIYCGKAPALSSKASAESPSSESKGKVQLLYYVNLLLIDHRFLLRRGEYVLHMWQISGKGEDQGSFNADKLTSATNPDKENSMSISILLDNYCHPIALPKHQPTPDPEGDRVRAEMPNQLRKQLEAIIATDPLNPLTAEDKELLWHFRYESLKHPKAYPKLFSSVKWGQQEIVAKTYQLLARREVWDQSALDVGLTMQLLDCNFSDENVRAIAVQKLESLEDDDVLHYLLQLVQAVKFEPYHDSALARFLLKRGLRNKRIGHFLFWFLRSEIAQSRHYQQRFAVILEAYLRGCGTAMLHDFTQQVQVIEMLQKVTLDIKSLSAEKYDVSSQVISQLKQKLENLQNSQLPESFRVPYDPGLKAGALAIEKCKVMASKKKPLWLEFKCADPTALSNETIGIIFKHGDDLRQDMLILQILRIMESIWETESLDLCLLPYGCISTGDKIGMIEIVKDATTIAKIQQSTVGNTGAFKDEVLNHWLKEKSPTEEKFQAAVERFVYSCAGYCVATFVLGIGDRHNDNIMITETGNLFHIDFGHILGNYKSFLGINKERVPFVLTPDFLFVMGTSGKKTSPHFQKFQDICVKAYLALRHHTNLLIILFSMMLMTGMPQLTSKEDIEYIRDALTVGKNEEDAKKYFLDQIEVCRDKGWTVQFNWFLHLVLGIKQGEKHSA
T9 sequence (Q92734+P04629 fused): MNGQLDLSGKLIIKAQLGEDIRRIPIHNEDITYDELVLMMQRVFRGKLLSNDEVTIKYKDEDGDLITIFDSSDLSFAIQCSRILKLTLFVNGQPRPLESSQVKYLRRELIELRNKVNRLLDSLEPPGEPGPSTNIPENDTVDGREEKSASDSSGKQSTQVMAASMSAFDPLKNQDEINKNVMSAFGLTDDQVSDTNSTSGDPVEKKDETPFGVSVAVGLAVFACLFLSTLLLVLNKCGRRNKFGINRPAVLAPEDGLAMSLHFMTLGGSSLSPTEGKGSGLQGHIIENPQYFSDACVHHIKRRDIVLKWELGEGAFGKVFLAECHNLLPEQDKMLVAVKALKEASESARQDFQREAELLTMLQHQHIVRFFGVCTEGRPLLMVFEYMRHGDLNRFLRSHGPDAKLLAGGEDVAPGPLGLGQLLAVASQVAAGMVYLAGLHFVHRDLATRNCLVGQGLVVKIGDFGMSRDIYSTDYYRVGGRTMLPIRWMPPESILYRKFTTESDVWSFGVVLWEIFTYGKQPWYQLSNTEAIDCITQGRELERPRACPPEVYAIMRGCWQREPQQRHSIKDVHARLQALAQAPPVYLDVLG

With `O=C1C=CC2(C=C1)OCC(Cc1cn(-c3cccc(Cl)c3)nn1)C(=O)N2c1ccccc1` (stereo not shown) [2d, 3-((1-(3-Chlorophenyl)-1H-1,2,3-triazol-4-yl)methyl)-5-phenyl-1-oxa-5-azaspiro[5.5]undeca-7,10-diene-4,9-dione] the remaining activity at 30 µM (AMPK(A2/B2/G1) [1]) was 94%, the “% Enzyme Activity (relative to DMSO controls)” value (AMPK(A2/B2/G1) [2]) was 89.86% and the “% Enzyme Activity (relative to DMSO controls)” value (ARK5/NUAK1; [3]) was 84.16%. For the same molecule, the remaining activity at 30 µM (ARK5/NUAK1; [4]) was 93.6%, the remaining activity at 30 µM (ARK5/NUAK1; [5]) was 88.9 ± 6.7% and the “% Enzyme Activity (relative to DMSO controls)” value (CDK2/cyclin O; [3]) was 54.15%. The remaining activity at 30 µM (CDK2/cyclin O; [4]) was 54.4%, the remaining activity at 30 µM (CDK2/cyclin O; [5]) was 54.3 ± 0.1% and the “% Enzyme Activity (relative to DMSO controls)” value (EIF2AK2) was 100.73%. For the same molecule, the remaining activity at 30 µM (EIF2AK2; [6]) was 101%, the “% Enzyme Activity (relative to DMSO controls)” value (GSK3b; 30 μM compound, ATP 10 μM, duplicates Data 1/Data 2) was 1.64% and the remaining activity at 30 µM (GSK3b; 30 μM compound, ATP 10 μM, duplicates Data 1/Data 2, read-out: % Enzyme Activity (relative to DMSO controls)) was 2.81%. For the same molecule, the remaining activity at 30 µM (GSK3b; 30 μM, ATP 10 μM, average ± SD, read-out: % Residual Activity at 30 μM) was 2.2 ± 0.8%, the inhibition at 30 µM (GSK3b; 30 μM, read-out: inhibition of GSK-3β in 70-kinase panel) was greater than 90% and the “% Enzyme Activity (relative to DMSO controls)” value (JNK2; [3]) was 79.67%. For the same molecule, the remaining activity at 30 µM (JNK2; [4]) was 80.3%, the remaining activity at 30 µM (JNK2; [5]) was 80 ± 0.4% and the “% Enzyme Activity (relative to DMSO controls)” value (STK25/YSK1; [3]) was 61.07%. The remaining activity at 30 µM (STK25/YSK1; [4]) was 63.3%, the remaining activity at 30 µM (STK25/YSK1; [5]) was 62.2 ± 1.6% and the “% Enzyme Activity (relative to DMSO controls)” value (TRKA-TFG (TRK-T3)) was 102.82%. For the same molecule, the remaining activity at 30 µM (TRKA-TFG (TRK-T3); [6]) was 109%, the “% Enzyme Activity (relative to DMSO controls)” value (SPHK1) was 77.68% and the remaining activity at 30 µM (SPHK1; [6]) was 80.5%. For the same molecule, the “% Enzyme Activity (relative to DMSO controls)” value (SPHK2) was 90.95%, the remaining activity at 30 µM (SPHK2; [6]) was 91.5% and the “% Enzyme Activity (relative to DMSO controls)” value (PI3Kg (p110g)) was 85.15%. For the same molecule, the remaining activity at 30 µM (PI3Kg (p110g); [6]) was 87.4% and the “secreted level of PGE2” value (PGE2) was “concentration-dependent manner”.

In the case of `O=C1C=CC2(C=C1)OCC(Cc1cc(C(F)(F)F)cc(C(F)(F)F)c1)C(=O)N2c1ccccc1` (racemic) [1c], the “% Residual Activity at 30 μM” value (Haspin) is given as 66.4 ± 0.5% and the “% Residual Activity at 30 μM” value (PKCa) is given as 45.6 ± 1.2%.
